Experimental data from PubChem BioAssay AID212 (DTP/NCI, 2004).
Where “and” joins values, the source holds several entries; their conditions need not be identical. Equal entries are not always repeated. Results filed as inconclusive are left out.

Tested on: BDF1 mice, colon carcinoma 38 sc, T/C %
Assay: NCI In Vivo Anticancer Drug Screen. Data for tumor model Colon Carcinoma 38 (subcutaneous) in B6D2F1 (BDF1) mice
Details: endpoint: median tumor weight (est.), higher = larger tumour
Procedure, shortened: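 Ratio of survival or tumor size, compound-treated animals relative to vehicle controls, in tumor-bearing mice.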

[1] = dose: 12.5 mg/kg/injection, schedule: Q07DX002 (ip), vehicle: saline
[2] = dose: 25.0 mg/kg/injection, schedule: Q07DX002 (ip), vehicle: saline
[3] = dose: 50.0 mg/kg/injection, schedule: Q07DX002 (ip), vehicle: saline
[4] = dose: 25.0 mg/kg/injection, schedule: Q07DX002 (ip), vehicle: saline with Tween-80

SMILES: CCCCCCCCCCCCCCCC(=O)Nc1ccn(C2OC(CO)C(O)C2O)c(=O)n1 (centres undefined)
- T/C [1]: 41 % of control
- T/C [2]: 88 % of control
- T/C [3]: 50 % of control
- T/C (dose: 100.0 mg/kg/injection, schedule: Q07DX002 (ip), vehicle: saline): 5 % of control
- T/C (dose: 200.0 mg/kg/injection, schedule: Q07DX002 (ip), vehicle: saline): 16 % of control
- T/C (dose: 400.0 mg/kg/injection, schedule: Q07DX002 (ip), vehicle: saline): 1 % of control

SMILES: COC1=NCN=C2SC=C(N)N=C12
- T/C (dose: 6.25 mg/kg/injection, schedule: Q07DX002 (ip), vehicle: saline): 102 % of control
- T/C [1]: 91 % of control
- T/C (dose: 12.5 mg/kg/injection, schedule: Q07DX003 (ip), vehicle: saline): 104 % of control
- T/C [2]: 101 % of control
- T/C [3]: 85 % of control
- T/C (dose: 50.0 mg/kg/injection, schedule: Q07DX003 (ip), vehicle: saline): 151 % of control
- T/C (dose: 100.0 mg/kg/injection, schedule: Q07DX003 (ip), vehicle: saline): 154 % of control

SMILES: OC1CCCC2CCCNC12 (centres undefined)
- T/C (dose: 6.25 mg/kg/injection, schedule: Q07DX002 (ip), vehicle: Klucel (hydroxypropylcellulose) (HPC)): 102 % of control
- T/C (dose: 12.5 mg/kg/injection, schedule: Q07DX002 (ip), vehicle: Klucel (hydroxypropylcellulose) (HPC)): 100 % of control
- T/C (dose: 25.0 mg/kg/injection, schedule: Q07DX002 (ip), vehicle: Klucel (hydroxypropylcellulose) (HPC)): 85 % of control
- T/C (dose: 50.0 mg/kg/injection, schedule: Q07DX002 (ip), vehicle: Klucel (hydroxypropylcellulose) (HPC)): 100 % of control
- T/C (dose: 100.0 mg/kg/injection, schedule: Q07DX002 (ip), vehicle: Klucel (hydroxypropylcellulose) (HPC)): 109 % of control

SMILES: C[C@H](N)C(=O)N[C@@H]1[C@H]2C(=C(O)C[C@@H](O)[C@@H]2O)C(=O)O[C@]1(C)C(Cl)Cl
- T/C (dose: 0.37 mg/kg/injection, schedule: Q07DX002 (ip), vehicle: Klucel (hydroxypropylcellulose) (HPC)): 97 % of control
- T/C (dose: 0.38 mg/kg/injection, schedule: Q07DX002 (ip), vehicle: Klucel (hydroxypropylcellulose) (HPC)): 75 % of control
- T/C (dose: 3.0 mg/kg/injection, schedule: Q07DX002 (ip), vehicle: Klucel (hydroxypropylcellulose) (HPC)): 53 % of control and 59 % of control
- T/C (dose: 6.0 mg/kg/injection, schedule: Q07DX002 (ip), vehicle: Klucel (hydroxypropylcellulose) (HPC)): 30 % of control and 40 % of control

SMILES: O=C1N(Cl)C(=O)C(c2ccc(Cl)cc2)(c2ccc(Cl)cc2)N1Cl
- T/C [4]: 87 % of control and 90 % of control and 100 % of control

SMILES: O=c1cc[nH]c(=O)o1
- T/C (dose: 12.2 mg/kg/injection, schedule: Q01DX009 (ip), vehicle: water): 119 % of control
- T/C (dose: 18.5 mg/kg/injection, schedule: Q01DX009 (ip), vehicle: water): 75 % of control
- T/C (dose: 28.0 mg/kg/injection, schedule: Q01DX009 (ip), vehicle: water): 83 % of control

SMILES: CC/C(=C(/CC)c1ccc(O)cc1)c1ccc(O)cc1
- T/C (dose: 12.5 mg/kg/injection, schedule: Q07DX003 (ip), vehicle: saline with Tween-80): 96 % of control
- T/C (dose: 25.0 mg/kg/injection, schedule: Q07DX003 (ip), vehicle: saline with Tween-80): 153 % of control
- T/C (dose: 100.0 mg/kg/injection, schedule: Q07DX003 (ip), vehicle: saline with Tween-80): 76 % of control
- T/C (dose: 200.0 mg/kg/injection, schedule: Q07DX003 (ip), vehicle: saline with Tween-80): 179 % of control

SMILES: O=C(NC1CCCCC1)OCc1c(COC(=O)NC2CCCCC2)c(-c2ccc(Cl)c(Cl)c2)n2c1CCC2
- T/C (dose: 12.5 mg/kg/injection, schedule: Q07DX002 (ip), vehicle: saline with Tween-80): 111 % of control
- T/C [4]: 85 % of control
- T/C (dose: 50.0 mg/kg/injection, schedule: Q07DX002 (ip), vehicle: saline with Tween-80): 76 % of control
- T/C (dose: 100.0 mg/kg/injection, schedule: Q07DX002 (ip), vehicle: saline with Tween-80): 95 % of control
- T/C (dose: 200.0 mg/kg/injection, schedule: Q07DX002 (ip), vehicle: saline with Tween-80): 86 % of control
- T/C (dose: 400.0 mg/kg/injection, schedule: Q07DX002 (ip), vehicle: saline with Tween-80): 80 % of control

SMILES: C[C@@]1(CO)[C@H](O)CC[C@@]2(C)[C@H]1CC[C@H]1C[C@@H]3C[C@@]12CC[C@@]3(O)COC(=O)CN
- T/C (dose: 25.0 micrograms/kg/injection, schedule: Q07DX002 (ip), vehicle: saline + alcohol): 155 % of control
- T/C (dose: 100.0 micrograms/kg/injection, schedule: Q07DX002 (ip), vehicle: saline + alcohol): 107 % of control

SMILES: COC1=C(C)C(=O)C2=C(C1=O)C(CO)N1C(C#N)C3CC4C(C1C2N1CCOC41)N3C (centres undefined)
- T/C (dose: 0.25 mg/kg/injection, schedule: Q07DX002 (ip), vehicle: saline + alcohol): 67 % of control
- T/C (dose: 0.5 mg/kg/injection, schedule: Q07DX002 (ip), vehicle: saline + alcohol): 109 % of control
- T/C (dose: 2.0 mg/kg/injection, schedule: Q07DX002 (ip), vehicle: saline + alcohol): 153 % of control
- T/C (dose: 4.0 mg/kg/injection, schedule: Q07DX002 (ip), vehicle: saline + alcohol): 87 % of control

SMILES: CC(=O)C(=O)O.CC(=O)C(=O)O.[NH-]C1CCCCC1[NH-].[Pt+2] (centres undefined)
- T/C (dose: 25.0 mg/kg/injection, schedule: Q07DX002 (ip), vehicle: dextrose): 96 % of control
- T/C (dose: 50.0 mg/kg/injection, schedule: Q07DX002 (ip), vehicle: dextrose): 44 % of control
